Experimental data reported in patent publication US9833497B2, “Human originated EGF domain proteins and use of the same” (CHENGDU SOURCEBIO LIMITED-LIABILITY COMPANY, priority 2013, dated 2017).

How the values were obtained:
Type in all cases: cell-based
Citrobacter diversus = experiment: MIC against Gram-negative bacteria: Citrobacter diversus; details: 5×10^5 CFU/mL
In short: (§1)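 MIC, the lowest recombinant protein concentration giving no bacterial growth, found by two-fold serial dilution of human EGF-domain proteins in triplicate. Inoculum 5×10^5 CFU/mL in LB from cultures at McFarland 0.5; plates incubated at 37° C, 175 rpm shaking.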

E. coli DH5α = experiment: Antibacterial activity: MIC and growth curve against E. coli DH5α in 96-well plate; details: minimal inhibitory concentration against E. coli DH5α; 96-well plate, 5×10^5 CFU/mL, 37° C., judged after 8 h
In short: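 Log-phase DH5α (OD600 about 0.5, 37° C, 185 rpm in LB) was pelleted, resuspended in fresh LB and seeded at 5×10^5 CFU/mL with recombinant protein at 50, 25 and 12.5 μg/mL (two-fold series), in triplicate. Plates were shaken at 175 rpm, 37° C, and OD600 was read every 30 min. MIC was the lowest concentration with no growth.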

Pseudomonas aeruginosa = experiment: MIC against Gram-negative bacteria: Pseudomonas aeruginosa; details: 5×10^5 CFU/mL
In short: as §1

Proteus vulgaris = experiment: MIC against Gram-negative bacteria: Proteus vulgaris; details: 5×10^5 CFU/mL
In short: as §1

Enterobacter cloacae = experiment: MIC against Gram-negative bacteria: Enterobacter cloacae; details: 5×10^5 CFU/mL
In short: as §1

Serratia marcescens = experiment: MIC against Gram-negative bacteria: Serratia marcescens; details: 5×10^5 CFU/mL
In short: as §1

Proteus mirabilis = experiment: MIC against Gram-negative bacteria: Proteus mirabilis; details: 5×10^5 CFU/mL
In short: as §1

Moraxella catarrhalis = experiment: MIC against Gram-negative bacteria: Moraxella catarrhalis; details: 5×10^5 CFU/mL
In short: as §1

Klebsiella pneumonia = experiment: MIC against Gram-negative bacteria: Klebsiella pneumonia; details: 5×10^5 CFU/mL
In short: as §1

E. coli BL21 = experiment: MIC against Gram-negative bacteria: E. coli BL21; details: 5×10^5 CFU/mL
In short: as §1

Aeromonas hydrophila = experiment: MIC against Gram-negative bacteria: Aeromonas hydrophila; details: 5×10^5 CFU/mL
In short: as §1

[1] = E. coli BL21, 10 h cultivation at 37° C.

PRT1211 (LSPYCKDEPCKNGGTCFDSLDGAVCQCDSGFRGERCQ; listed as Homo sapiens)
MIC against C. diversus (Citrobacter diversus; Citrobacter diversus, 96-well plate, 37° C., 10 h): 12.5 µg/mL | MIC (E. coli DH5α): 50 µg/mL | MIC against P. aeruginosa (Pseudomonas aeruginosa; Pseudomonas aeruginosa, 96-well plate, 37° C., 10 h): 12.5 µg/mL | MIC against P. vulgaris (Proteus vulgaris; Proteus vulgaris, 96-well plate, 37° C., 10 h): 25 µg/mL | MIC against E. cloacae (Enterobacter cloacae; Enterobacter cloacae, 96-well plate, 37° C., 10 h): 50 µg/mL | MIC against S. marcescens (Serratia marcescens; Serratia marcescens, 96-well plate, 37° C., 10 h): 12.5 µg/mL | MIC against P. mirabilis (Proteus mirabilis; Proteus mirabilis, 96-well plate, 37° C., 10 h): 50 µg/mL | MIC against M. catarrhalis (Moraxella catarrhalis; Moraxella catarrhalis, 96-well plate, 37° C., 10 h): 25 µg/mL | MIC against K. pneumonia (Klebsiella pneumonia; Klebsiella pneumonia, 96-well plate, 37° C., 10 h): 25 µg/mL | MIC against E. coli BL21 (E. coli BL21; E. coli BL21, 96-well plate, 37° C., 10 h): 25 µg/mL | MIC against A. hydrophila (Aeromonas hydrophila; Aeromonas hydrophila, 96-well plate, 37° C., 10 h): 25 µg/mL

PRT1357 (GQHSCPSDCNNLGQCVSGRCICNEGYSGEDCS; listed as Homo sapiens)
MIC against C. diversus (Citrobacter diversus; Citrobacter diversus, 10 h cultivation at 37° C.): 50 µg/mL | MIC (E. coli DH5α): 50 µg/mL | MIC against P. aeruginosa (Pseudomonas aeruginosa; Pseudomonas aeruginosa, 10 h cultivation at 37° C.): 25 µg/mL | MIC against P. vulgaris (Proteus vulgaris; Proteus vulgaris, 10 h cultivation at 37° C.): 50 µg/mL | MIC against E. cloacae (Enterobacter cloacae; Enterobacter cloacae, 10 h cultivation at 37° C.): 25 µg/mL | MIC against S. marcescens (Serratia marcescens; Serratia marcescens, 10 h cultivation at 37° C.): 12.5 µg/mL | MIC against P. mirabilis (Proteus mirabilis; Proteus mirabilis, 10 h cultivation at 37° C.): 12.5 µg/mL | MIC against M. catarrhalis (Moraxella catarrhalis; Moraxella catarrhalis, 10 h cultivation at 37° C.): 12.5 µg/mL | MIC against K. pneumonia (Klebsiella pneumonia; Klebsiella pneumonia, 10 h cultivation at 37° C.): 50 µg/mL | MIC against E. coli BL21 (E. coli BL21; [1]): 12.5 µg/mL | MIC against A. hydrophila (Aeromonas hydrophila; Aeromonas hydrophila, 10 h cultivation at 37° C.): 100 µg/mL

PRT663 (DVNECDDLNGPAVLCVHGYCENTEGSYRCHCSPGYVAEAGPPHCT; listed as Homo sapiens)
MIC C. diversus (Citrobacter diversus; 96-well plate, 37° C., 10 h): 50 µg/mL | MIC (E. coli DH5α): 100 µg/mL | MIC P. aeruginosa (Pseudomonas aeruginosa; 96-well plate, 37° C., 10 h): 50 µg/mL | MIC P. vulgaris (Proteus vulgaris; 96-well plate, 37° C., 10 h): 50 µg/mL | MIC E. cloacae (Enterobacter cloacae; 96-well plate, 37° C., 10 h): 12.5 µg/mL | MIC S. marcescens (Serratia marcescens; 96-well plate, 37° C., 10 h): 12.5 µg/mL | MIC P. mirabilis (Proteus mirabilis; 96-well plate, 37° C., 10 h): 25 µg/mL | MIC M. catarrhalis (Moraxella catarrhalis; 96-well plate, 37° C., 10 h): 12.5 µg/mL | MIC K. pneumonia (Klebsiella pneumonia; 96-well plate, 37° C., 10 h): 25 µg/mL | MIC E. coli BL21 (E. coli BL21; 96-well plate, 37° C., 10 h): 25 µg/mL | MIC A. hydrophila (Aeromonas hydrophila; 96-well plate, 37° C., 10 h): 25 µg/mL

PRT470 (KCPQPCRNGGKCIGKSKCKCSKGYQGDLCS; listed as Homo sapiens)
MIC against C. diversus (Citrobacter diversus; 96-well plate, 37° C., 10 h): 12.5 µg/mL | MIC (E. coli DH5α): 50 µg/mL | MIC against P. aeruginosa (Pseudomonas aeruginosa; 96-well plate, 37° C., 10 h): 50 µg/mL | MIC against P. vulgaris (Proteus vulgaris; 96-well plate, 37° C., 10 h): 12.5 µg/mL | MIC against E. cloacae (Enterobacter cloacae; 96-well plate, 37° C., 10 h): 50 µg/mL | MIC against S. marcescens (Serratia marcescens; 96-well plate, 37° C., 10 h): 50 µg/mL | MIC against P. mirabilis (Proteus mirabilis; 96-well plate, 37° C., 10 h): 50 µg/mL | MIC against M. catarrhalis (Moraxella catarrhalis; 96-well plate, 37° C., 10 h): 25 µg/mL | MIC against K. pneumonia (Klebsiella pneumonia; 96-well plate, 37° C., 10 h): 12.5 µg/mL | MIC against E. coli BL21 (E. coli BL21; 96-well plate, 37° C., 10 h): 12.5 µg/mL | MIC against A. hydrophila (Aeromonas hydrophila; 96-well plate, 37° C., 10 h): 25 µg/mL

PRT440 (DVNECRQNVCRPDQHCKNTRGGYKCIDLCPNGMTKAENGTCI; listed as Homo sapiens)
MIC (Citrobacter diversus; C. diversus, 10 h cultivation at 37° C.): 50 µg/mL | MIC (E. coli DH5α): 50 µg/mL | MIC (Pseudomonas aeruginosa; P. aeruginosa, 10 h cultivation at 37° C.): 50 µg/mL | MIC (Proteus vulgaris; P. vulgaris, 10 h cultivation at 37° C.): 50 µg/mL | MIC (Enterobacter cloacae; E. cloacae, 10 h cultivation at 37° C.): 50 µg/mL | MIC (Serratia marcescens; S. marcescens, 10 h cultivation at 37° C.): 25 µg/mL | MIC (Proteus mirabilis; P. mirabilis, 10 h cultivation at 37° C.): 25 µg/mL | MIC (Moraxella catarrhalis; M. catarrhalis, 10 h cultivation at 37° C.): 12.5 µg/mL | MIC (Klebsiella pneumonia; K. pneumonia, 10 h cultivation at 37° C.): 12.5 µg/mL | MIC (E. coli BL21; [1]): 12.5 µg/mL | MIC (Aeromonas hydrophila; A. hydrophila, 10 h cultivation at 37° C.): 12.5 µg/mL

PRT515 (CHCDPIGSLNEVCVKDEKHARRGLAPGSCHCKTGFGGVSCDRCARGYTGYPDCKA; listed as Homo sapiens)
MIC against C. diversus (Citrobacter diversus; 96-well plate, 37° C., 10 h): 25 µg/mL | MIC (E. coli DH5α): 25 µg/mL | MIC against P. aeruginosa (Pseudomonas aeruginosa; 96-well plate, 37° C., 10 h): 25 µg/mL | MIC against P. vulgaris (Proteus vulgaris; 96-well plate, 37° C., 10 h): 12.5 µg/mL | MIC against E. cloacae (Enterobacter cloacae; 96-well plate, 37° C., 10 h): 25 µg/mL | MIC against S. marcescens (Serratia marcescens; 96-well plate, 37° C., 10 h): 50 µg/mL | MIC against P. mirabilis (Proteus mirabilis; 96-well plate, 37° C., 10 h): 50 µg/mL | MIC against M. catarrhalis (Moraxella catarrhalis; 96-well plate, 37° C., 10 h): 100 µg/mL | MIC against K. pneumonia (Klebsiella pneumonia; 96-well plate, 37° C., 10 h): 12.5 µg/mL | MIC against E. coli BL21 (E. coli BL21; 96-well plate, 37° C., 10 h): 12.5 µg/mL | MIC against A. hydrophila (Aeromonas hydrophila; 96-well plate, 37° C., 10 h): 50 µg/mL
